Data published in patent US20230348424A1, “HETEROCYCLIC COMPOUNDS AND METHODS OF USE” (Schrödinger, Inc., priority 2022, published 2023).

Biological target: SOS1:KRAS (G12C) interaction (Homo sapiens (Human), UniProt Q07889)
Assay: SOS1 KRas(G12C) FRET Assay
Assay type: binding
Conditions: 0.5 nM His10-SOS1 (res. 564-1049), 2.5 nM GST-KRAS G12C (res. 1-169), 2 hrs at RT
How it was run: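 GST-KRAS G12C (res. 1-169) at 2.5 nM and His10-SOS1 (res. 564-1049) at 0.5 nM, final, in PBS with 0.1% BSA, 5 mM MgCl2, 100 mM KF, 5 mM DTT and 0.5% DMSO. After 2 h at RT, FRET read at 665/615 nm and normalized to DMSO and no-SOS1 controls. IC50 by non-linear regression.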

Chain of SOS1:KRAS (G12C) interaction (Q07889 564-1049, stated change not applied): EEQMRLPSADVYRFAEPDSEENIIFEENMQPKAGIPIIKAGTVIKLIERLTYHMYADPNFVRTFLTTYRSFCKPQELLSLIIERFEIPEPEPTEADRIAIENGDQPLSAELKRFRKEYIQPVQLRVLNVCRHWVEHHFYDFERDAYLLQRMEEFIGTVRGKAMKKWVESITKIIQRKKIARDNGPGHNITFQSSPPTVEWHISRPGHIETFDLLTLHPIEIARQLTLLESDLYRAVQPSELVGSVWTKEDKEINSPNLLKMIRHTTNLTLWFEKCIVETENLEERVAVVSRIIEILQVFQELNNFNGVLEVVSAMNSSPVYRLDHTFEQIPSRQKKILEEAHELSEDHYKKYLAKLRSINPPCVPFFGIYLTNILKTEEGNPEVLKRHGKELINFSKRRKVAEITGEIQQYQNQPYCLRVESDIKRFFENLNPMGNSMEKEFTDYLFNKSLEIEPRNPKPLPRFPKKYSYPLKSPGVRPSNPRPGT

Structure (SMILES)	IC50
CCN1C[C@@H]2[C@H](C1)[C@H]2Nc1cc(=O)n(C2(C(F)F)CC2)cc1C(=O)N[C@H](C)c1cccc(C(F)F)c1F [Example 58, N-((R)-1-(3-(difluoromethyl)-2-fluorophenyl)ethyl)-1-(1-(difluoromethyl)cyclopropyl)-4-(((1R,5S,6s)-3-ethyl-3-azabicyclo[3.1.0]hexan-6-yl)amino)-6-oxo-1,6-dihydropyridine-3-carboxamide]	30.8 nM
CC(C)N1C[C@@H]2[C@H](C1)[C@H]2Nc1cc(=O)n(C2(C(F)F)CC2)cc1C(=O)N[C@H](C)c1cccc(C(F)F)c1F [Example 59, N-((R)-1-(3-(difluoromethyl)-2-fluorophenyl)ethyl)-1-(1-(difluoromethyl)cyclopropyl)-4-(((1R,5S,6s)-3-isopropyl-3-azabicyclo[3.1.0]hexan-6-yl)amino)-6-oxo-1,6-dihydropyridine-3-carboxamide]	31.5 nM
C[C@@H](NC(=O)c1cn(C2(C(F)F)CC2)c(=O)cc1N[C@H]1[C@@H]2CN(C3CC3)C[C@@H]21)c1cccc(C(F)F)c1F [Example 60, 4-(((1R,5S,6s)-3-cyclopropyl-3-azabicyclo[3.1.0]hexan-6-yl)amino)-N-((R)-1-(3-(difluoromethyl)-2-fluorophenyl)ethyl)-1-(1-(difluoromethyl)cyclopropyl)-6-oxo-1,6-dihydropyridine-3-carboxamide]	41.2 nM
C[C@@H](NC(=O)c1cn(C2(C(F)F)CC2)c(=O)cc1NC1CCN(C2CC2)CC1)c1cccc(C(F)F)c1F [Example 62, (R)-4-((1-cyclopropylpiperidin-4-yl)amino)-N-(1-(3-(difluoromethyl)-2-fluorophenyl)ethyl)-1-(1-(difluoromethyl)cyclopropyl)-6-oxo-1,6-dihydropyridine-3-carboxamide]	20.1 nM
C[C@@H](NC(=O)c1cn([C@@H]2C[C@H]2C2CC2)c(=O)cc1N[C@H]1[C@@H]2CN(C)C[C@@H]21)c1cccc(C(F)F)c1F [Example 71, 1-((1S,2R)-[1,1′-bi(cyclopropan)]-2-yl)-N-((R)-1-(3-(difluoromethyl)-2-fluorophenyl)ethyl)-4-(((1R5S,6s)-3-methyl-3-azabicyclo[3.1.0]hexan-6-yl)amino)-6-oxo-1,6-dihydropyridine-3-carboxamide]	21.9 nM
C[C@@H](NC(=O)c1cn(C2(C(F)(F)F)CC2)c(=O)cc1NC1CCN(C)CC1)c1cccc(C(F)F)c1F [Example 75, (R)-N-(1-(3-(difluoromethyl)-2-fluorophenyl)ethyl)-4-((1-methylpiperidin-4-yl)amino)-6-oxo-1-(1-(trifluoromethyl)cyclopropyl)-1,6-dihydropyridine-3-carboxamide]	15.5 nM
C[C@@H](NC(=O)c1cn(C2(C(F)F)CCC2)c(=O)cc1NC1CCN(C)CC1)c1cccc(C(F)F)c1F [Example 76, (R)-N-(1-(3-(difluoromethyl)-2-fluorophenyl)ethyl)-1-(1-(difluoromethyl)cyclobutyl)-4-((1-methylpiperidin-4-yl)amino)-6-oxo-1,6-dihydropyridine-3-carboxamide]	12.5 nM
C[C@@H](NC(=O)c1cn(C2(CF)CC2)c(=O)cc1NC1CCN(C)CC1)c1cccc(C(F)F)c1F [Example 77, (R)-N-(1-(3-(difluoromethyl)-2-fluorophenyl)ethyl)-1-(1-(fluoromethyl)cyclopropyl)-4-((1-methylpiperidin-4-yl)amino)-6-oxo-1,6-dihydropyridine-3-carboxamide]	13.7 nM
C[C@@H](NC(=O)c1cn(C2(C)CN(C(=O)C3CC3)C2)c(=O)cc1NC1CCN(C)CC1)c1cccc(C(F)F)c1F [Example 78, (R)-1-(1-(cyclopropanecarbonyl)-3-methylazetidin-3-yl)-N-(1-(3-(difluoromethyl)-2-fluorophenyl)ethyl)-4-((1-methylpiperidin-4-yl)amino)-6-oxo-1,6-dihydropyridine-3-carboxamide]	0.9 nM
C[C@@H](NC(=O)c1cn(C23CC(C2)C3)c(=O)cc1N[C@H]1[C@@H]2CNC[C@@H]21)c1cccc(C(F)F)c1F [Example 89, 4-(((1R,5S,6s)-3-azabicyclo[3.1.0]hexan-6-yl)amino)-1-(bicyclo[1. 1.1]pentan-1-yl)-N-((R)-1-(3-(difluoromethyl)-2-fluorophenyl)ethyl)-6-oxo-1,6-dihydropyridine-3-carboxamide]	22.9 nM
C[C@@H](NC(=O)c1cn(C2CCC2)c(=O)cc1N[C@H]1[C@@H]2CN(C)C[C@@H]21)c1cccc(C(F)F)c1F [Example 150, 1-cyclobutyl-N-((R)-1-(3-(difluoromethyl)-2-fluorophenyl)ethyl)-4-(((1R,5S,6s)-3-methyl-3-azabicyclo[3.1.0]hexan-6-yl)amino)-6-oxo-1,6-dihydropyridine-3-carboxamide]	12.3 nM
Cc1c([C@@H](C)NC(=O)c2cn(C3CCOCC3)c(=O)cc2SC2CCNCC2)cccc1C(F)(F)F [Example 157, (R)-N-(1-(2-methyl-3-(trifluoromethyl)phenyl)ethyl)-6-oxo-4-(piperidin-4-ylthio)-1-(tetrahydro-2H-pyran-4-yl)-1,6-dihydropyridine-3-carboxamide]	218 nM
CN1C[C@@H]2[C@H](C1)[C@H]2Nc1cc(=O)n(C2(C(F)F)CC2)cc1C(=O)N[C@@H](c1cccc(C(F)F)c1F)C(F)F [Example 158, N-((S)-1-(3-(difluoromethyl)-2-fluorophenyl)-2,2-difluoroethyl)-1-(1-(difluoromethyl)cyclopropyl)-4-(((1R,5S,6s)-3-methyl-3-azabicyclo[3.1.0]hexan-6-yl)amino)-6-oxo-1,6-dihydropyridine-3-carboxamide]	82 nM
CN1C[C@@H]2[C@H](C1)[C@H]2Nc1cc(=O)n(C2(C(F)F)CC2)cc1C(=O)N[C@H](c1cccc(C(F)F)c1F)C(F)F [Example 159, N-((R)-1-(3-(difluoromethyl)-2-fluorophenyl)-2,2-difluoroethyl)-1-(1-(difluoromethyl)cyclopropyl)-4-(((1R,5S,6s)-3-methyl-3-azabicyclo[3.1.0]hexan-6-yl)amino)-6-oxo-1,6-dihydropyridine-3-carboxamide]	1060 nM
C[C@@H](NC(=O)c1cn(C23CC(C2)C3)c(=O)cc1N[C@H]1[C@@H]2CN(C)C[C@@H]21)c1cccc(S(F)(F)(F)(F)F)c1 [Example 161, 1-(bicyclo[1.1.1]pentan-1-yl)-4-(((1R,5S,6s)-3-methyl-3-azabicyclo[3 .1.0]hexan-6-yl)amino)-6-oxo-N-((R)-1-(3-(pentafluoro-16-sulfaneyl)phenyl)ethyl)-1,6-dihydropyridine-3-carboxamide]	24 nM

The remaining lines, values ahead:

IC50	Structure (SMILES)
21.4 nM	C[C@@H](NC(=O)c1cn(C23CC(C2)C3)c(=O)cc1N[C@H]1[C@@H]2CN(C)C[C@@H]21)c1cccc(C(F)(F)F)c1 [Example 160, 1-(bicyclo[1.1.1]pentan-1-yl)-4-(((1R,5S,6s)-3-methyl-3-azabicyclo[3.1.0]hexan-6-yl)amino)-6-oxo-N-((R)-1-(3-(trifluoromethyl)phenyl)ethyl)-1,6-dihydropyridine-3-carboxamide]
27.8 nM	C[C@@H](NC(=O)c1cn(C23CC(C2)C3)c(=O)cc1N[C@H]1[C@@H]2CN(C)C[C@@H]21)c1cccc(S(F)(F)(F)(F)F)c1F [Example 162, 1-(bicyclo[1.1.1]pentan-1-yl)-N-((R)-1-(2-fluoro-3-(pentafluoro-16-sulfaneyl)phenyl)ethyl)-4-(((1R,5S,6s)-3-methyl-3-azabicyclo[3.1.0]hexan-6-yl)amino)-6-oxo-1,6-dihydropyridine-3-carboxamide]
29.3 nM	C[C@@H](NC(=O)c1cn(C2CCC2)c(=O)cc1N[C@H]1[C@@H]2CN(C)C[C@@H]21)c1cccc(S(F)(F)(F)(F)F)c1 [Example 163, 1-cyclobutyl-4-(((1R,5S,6s)-3-methyl-3-azabicyclo[3.1.0]hexan-6-yl)amino)-6-oxo-N-((R)-1-(3-(pentafluoro-16-sulfaneyl)phenyl)ethyl)-1,6-dihydropyridine-3-carboxamide]
13.5 nM	C[C@@H](NC(=O)c1cn(C2CCC2)c(=O)cc1NC1CCN(C)CC1)c1cccc(S(F)(F)(F)(F)F)c1 [Example 164, (R)-1-cyclobutyl-4-((1-methylpiperidin-4-yl)amino)-6-oxo-N-(1-(3-(pentafluoro-16-sulfaneyl)phenyl)ethyl)-1,6-dihydropyridine-3-carboxamide]
5900 nM	CC(NC(=O)c1cn(C2(C(F)F)CC2)c(=O)cc1NC1CCN(C)CC1)c1ccc(C2CC2)c(C(F)(F)F)c1 (centres unmarked) [Example 169, N-(1-(4-cyclopropyl-3-(trifluoromethyl)phenyl)ethyl)-1-(1-(difluoromethyl)cyclopropyl)-4-((1-methylpiperidin-4-yl)amino)-6-oxo-1,6-dihydropyridine-3-carboxamide]
40.9 nM	CC(NC(=O)c1cn(C2(C(F)F)CC2)c(=O)cc1NC1CCN(C)CC1)c1cccc(C(F)(F)F)c1Cl (centres unmarked) [Example 170, N-(1-(2-chloro-3-(trifluoromethyl)phenyl)ethyl)-1-(1-(difluoromethyl)cyclopropyl)-4-((1-methylpiperidin-4-yl)amino)-6-oxo-1,6-dihydropyridine-3-carboxamide]
1180 nM	COc1ccc(C(C)NC(=O)c2cn(C3(C(F)F)CC3)c(=O)cc2NC2CCN(C)CC2)cc1C(F)(F)F (centres unmarked) [Example 173, 1-(1-(difluoromethyl)cyclopropyl)-N-(1-(4-methoxy-3-(trifluoromethyl)phenyl)ethyl)-4-((1-methylpiperidin-4-yl)amino)-6-oxo-1,6-dihydropyridine-3-carboxamide]
1180 nM	C[C@@H](NC(=O)c1cn(C2(C(F)F)CC2)c(=O)cc1N[C@H]1[C@@H]2CN(C)C[C@@H]21)c1cccc(C(F)(F)c2ccncc2)c1F [Example 174, N-((R)-1-(3-(difluoro(pyridin-4-yl)methyl)-2-fluorophenyl)ethyl)-1-(1-(difluoromethyl)cyclopropyl)-4-(((1R,5S,6s)-3-methyl-3-azabicyclo[3.1.0]hexan-6-yl)amino)-6-oxo-1,6-dihydropyridine-3-carboxamide]
